Target: T1, mAChR M1 (UniProt P11229)
T1 sequence (P11229 1-460): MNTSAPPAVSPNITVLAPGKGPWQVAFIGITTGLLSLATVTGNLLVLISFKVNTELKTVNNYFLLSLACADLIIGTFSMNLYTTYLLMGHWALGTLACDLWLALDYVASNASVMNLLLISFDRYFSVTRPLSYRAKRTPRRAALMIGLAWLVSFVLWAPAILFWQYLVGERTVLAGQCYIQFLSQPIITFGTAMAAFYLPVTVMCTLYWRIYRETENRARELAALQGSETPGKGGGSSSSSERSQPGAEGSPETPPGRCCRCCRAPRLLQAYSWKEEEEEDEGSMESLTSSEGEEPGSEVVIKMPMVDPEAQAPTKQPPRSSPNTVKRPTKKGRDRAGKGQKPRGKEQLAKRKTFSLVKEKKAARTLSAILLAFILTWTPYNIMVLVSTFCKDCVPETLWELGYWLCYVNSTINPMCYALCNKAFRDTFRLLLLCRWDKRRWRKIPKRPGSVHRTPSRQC
Assay: mAChR M1 cell-based functional assay (calcium mobilization, potentiation of EC20 acetylcholine response)
Conditions: for Emax (%): % ACh maximum at 30 μM, mAChR M1-expressing CHO-K1 cells, calcium flux; for pEC50 / EC50: positive allosteric modulation of EC20 ACh response, mAChR M1 CHO-K1 cells; for pEC50: <5 estimated where no plateau; for EC50: >10 μM estimated where no plateau, read-out: EC50
Method: Chinese hamster ovary (CHO-K1) cells stably expressing rat (r)M1 were purchased from the American Type Culture Collection and cultured according to their indicated protocol. […] To make stable rM2, hM2, rM3, hM4, and rM4 cell lines for use in calcium mobilization assays, these cells also were stably transfected with a chimeric G-protein (Gqi5) (provided by B. R. Conklin, University of California, San Francisco) using Lipofectamine 2000. rM1, hM1, rM3, hM3, rM5, and hM5 cells were grown in Ham's F-12 medium containing 10% heat-inactivated fetal bovine serum (FBS), 20 mM HEPES, and 50 μg/mL G418 sulfate. rM2-Gqi5, hM2-Gqi5, and hM4-Gqi5 cells were grown in the same medium also containing 500 μg/mL Hygromycin B. Stable rM4-Gqi5 cells were grown in DMEM containing 10% heat-inactivated FBS, 20 mM HEPES, 400 μg/mL G418 sulfate, and 500 μg/mL Hygromycin B.
For high throughput measurement of agonist-evoked increases in intracellular calcium, CHO-K1 cells stably expressing muscarinic receptors were plated in growth medium lacking G418 and hygromycin at 15,000 cells/20 μL/well in Greiner 384-well black-walled, tissue culture (TC)-treated, clear-bottom plates (VWR). Cells were incubated overnight at 37° C. and 5% CO2. […] Compound master plates were formatted in an 11 point CRC format (1:3 dilutions) in 100% DMSO with a starting concentration of 10 mM using the BRAVO liquid handler (Agilent). Test compound CRCs were then transferred to daughter plates (240 nL) using the Echo acoustic plate reformatter (Labcyte, Sunnyvale, Calif.) and then diluted into assay buffer (40 μL) to a 2× stock using a Thermo Fisher Combi (Thermo Fisher Scientific, Waltham, Mass.).
Calcium flux was measured using the Functional Drug Screening System (FDSS) 6000 (Hamamatsu Corporation, Tokyo, Japan) as an increase in the fluorescent static ratio. Compounds were applied to cells (20 μL, 2×) using the automated system of the FDSS 6000 at 4 s into the 300 s protocol and the data were collected at 1 Hz. […] Agonist activity was analyzed as a concentration-dependent increase in calcium mobilization upon compound addition. Positive allosteric modulator activity was analyzed as a concentration-dependent increase in the EC20 acetylcholine response. Antagonist activity was analyzed as a concentration-dependent decrease in the EC80 acetylcholine response. Concentration-response curves were generated using a four-parameter logistical equation in XLfit curve fitting software (IDBS, Bridgewater, N.J.) for Excel (Microsoft, Redmond, Wash.) or Prism (GraphPad Software, Inc., San Diego, Calif.).
The above described assay was also operated in a second mode where an appropriate fixed concentration of the present compounds were added to the cells after establishment of a fluorescence baseline for about 3 seconds, and the response in cells was measured. […] Data were reduced as described above and the EC50 values for the agonist in the presence of test compound were determined by nonlinear curve fitting. A decrease in the EC50 value of the agonist with increasing concentrations of the present compounds (a leftward shift of the agonist concentration-response curve) is an indication of the degree of muscarinic positive allosteric modulation at a given concentration of the present compound. An increase in the EC50 value of the agonist with increasing concentrations of the present compounds (a rightward shift of the agonist concentration response curve) is an indication of the degree of muscarinic antagonism at a given concentration of the present compound. The second mode also indicates whether the present compounds also affect the maximum response of the muscarinic receptor to agonists.
The calcium mobilization assay was also used to determine “efficacy”.

| Structure (SMILES) | Emax (%) | pEC50 | EC50 [µM] |
| --- | --- | --- | --- |
| Cn1cc2cc(-c3ccc(CN4Cc5ncccc5C4=O)c(F)c3)ccc2n1 [Example B1] | 82 | 5.96 | 1.1 |
| Cc1nn(C)cc1-c1ccc(CN2Cc3ccccc3C2=O)c(F)c1 [Example B2] | 78 | 5.82 | 1.5 |
| Cn1cc2cc(-c3ccc(CN4Cc5ccccc5S4(=O)=O)c(F)c3)ccc2n1 [Example B5] | 34 | 5.60 | 2.5 |
| O=C1c2ccccc2CN1Cc1ccc(-c2ccc3cnccc3c2)cc1F [Example B6] | 38 | 5.59 | 2.6 |
| Cn1cc(-c2ccc(CN3Cc4cc(F)cc(F)c4C3=O)c(F)c2)cn1 [Example B7] | 63 | 5.59 | 2.6 |
| Cn1cc(-c2ccc(CN3Cc4ccncc4C3=O)c(F)c2)cn1 [Example B8] | 79 | 5.55 | 2.8 |
| Cn1cc(-c2ccc(CN3Cc4ncccc4C3=O)c(F)c2)cn1 [Example B9] | 83 | 5.55 | 2.8 |
| Cn1ccc2ccc(-c3ccc(CN4Cc5ccccc5C4=O)c(F)c3)cc21 [Example B10] | 62 | 5.51 | 3.1 |
| O=C1c2ccccc2CN1Cc1ccc(-c2ccncc2)cc1F [Example B11] | 71 | 5.47 | 3.4 |
| Cn1cc(-c2ccc(CN3Cc4ccccc4C3=O)c(C(F)(F)F)c2)cn1 [Example B12] | 36 | 5.42 | 3.8 |
| CC(c1ccc(-c2cnn(C)c2)cc1F)N1Cc2ccccc2C1=O (stereo not drawn) [Example B13, 2-(1-(2-fluoro-4-(1-methyl-1H-pyrazol-4-yl)phenyl)ethyl)isoindolin-1-one] | 35 | <5.00 | > 10 |
| O=C1c2cccnc2CN1Cc1ccc(-c2ccnc(F)c2)cc1F [Example B14] | 36 | <5.00 | > 10 |
| Cn1cc(-c2ccc(CN3Cc4ccccc4C3=O)nc2)cn1 [Example B15] | 37 | <5.00 | > 10 |
| O=C1c2ccccc2CN1Cc1ccc(-c2c[nH]nc2C(F)(F)F)cc1F [Example B16] | 38 | <5.00 | > 10 |
| Cn1cc(-c2ccc(CN3Cc4ccccc4C3=O)cn2)cn1 [Example B17] | 40 | <5.00 | > 10 |
| Cn1cc(-c2cnc(CN3Cc4ncccc4C3=O)c(F)c2)cn1 [Example B18] | 40 | <5.00 | > 10 |
| Cn1nccc1-c1ccc(CN2Cc3ccccc3C2=O)c(F)c1 [Example B19] | 40 | <5.00 | > 10 |
| Cn1cc(-c2cnc(CN3Cc4cccnc4C3=O)c(F)c2)cn1 [Example B20] | 43 | <5.00 | > 10 |
| Cn1cc(-c2cnc(CN3Cc4ccccc4C3=O)c(F)c2)cn1 [Example B21] | 43 | <5.00 | > 10 |
| O=C1c2ccccc2CN1Cc1ccc(-n2ccnc2)cc1F [Example B22] | 51 | <5.00 | > 10 |
| Cn1cc(-c2ccc(CN3Cc4ccccc4S3(=O)=O)c(F)c2)cn1 [Example B23] | 63 | <5.00 | > 10 |

| Structure (SMILES) | Emax (%) | pEC50 | EC50 [µM] |
| --- | --- | --- | --- |
| Cn1ncc2ccc(-c3ccc(CN4Cc5ccccc5C4=O)c(F)c3)cc21 [Example B24] | 64 | <5.00 | > 10 |
| Cn1cc(-c2ccc(CN3Cc4cccnc4C3=O)c(F)c2)cn1 [Example B25] | 66 | <5.00 | > 10 |
| Cn1ncc2cc(-c3ccc(CN4Cc5ncccc5C4=O)c(F)c3)ccc21 [Example B27] | 58 | 6.1 | 0.794 |
| O=C1c2cccnc2CN1Cc1ccc(-c2ccc3cc[nH]c3c2)cc1F [Example B28] | 34 | <5.00 | > 10 |
| Cn1ncc2c(-c3ccc(CN4Cc5ncccc5C4=O)c(F)c3)cccc21 [Example B29] | 58 | 5.80 | 1.59 |
| O=C1c2cccnc2CN1Cc1ccc(-c2ccc(Cl)nc2)cc1F [Example B30] | 40 | 5.46 | 3.47 |
| O=C1c2cccnc2CN1Cc1ccc(-c2cncc(Cl)c2)cc1F [Example B31] | 35 | 5.34 | 4.57 |
| Cn1cc2c(-c3ccc(CN4Cc5ncccc5C4=O)c(F)c3)cccc2n1 [Example B32] | 74 | 6.07 | 0.851 |
| COc1ncccc1-c1ccc(CN2Cc3ncccc3C2=O)c(F)c1 [Example B33] | 31 | <5.00 | > 10 |
| Cc1cc(-c2ccc(CN3Cc4ncccc4C3=O)c(F)c2)cnc1F [Example B34] | 37 | 5.60 | 2.51 |
| Cn1cc2ccc(-c3ccc(CN4Cc5ncccc5C4=O)c(F)c3)cc2n1 [Example B35] | 80 | 5.71 | 1.95 |
| O=C1c2cccnc2CN1Cc1ccc(-c2ccc3[nH]ncc3c2)cc1F [Example B36] | 58 | 6.28 | 0.525 |
| O=C1c2cccnc2CN1Cc1ccc(-c2cnc3ccccc3c2)cc1F [Example B37] | 31 | 6.41 | 0.389 |
| O=C1c2cccnc2CN1Cc1ccc(-c2cccc3cccnc23)cc1F [Example B38] | 26 | <5.00 | > 10 |
| CN(C)c1ccc(-c2ccc(CN3Cc4ncccc4C3=O)c(F)c2)cn1 [Example B39] | 31 | 5.98 | 1.05 |
| O=C1c2cccnc2CN1Cc1ccc(-c2ccc3cn[nH]c3c2)cc1F [Example B40] | 70 | 6.13 | 0.741 |
| O=C1c2cccnc2CN1Cc1ccc(-c2ccncc2)cc1F [Example B41] | 70 | 5.33 | 4.68 |
| O=C1c2cccnc2CN1Cc1ccc(-c2cccc3ncccc23)cc1F [Example B42] | 41 | 5.44 | 3.63 |
| COc1cncc(-c2ccc(CN3Cc4ncccc4C3=O)c(F)c2)c1 [Example B43] | 47 | <5.00 | > 10 |
| O=C1c2cccnc2CN1Cc1ccc(-c2ccc3cnccc3c2)cc1F [Example B44] | 65 | 6.04 | 0.912 |

Source: US10654847B2, “Substituted 2-(4-heterocyclylbenzyl)isoindolin-1-one analogs as positive allosteric modulators of the muscarinic acetylcholine receptor M1” (Vanderbilt University, priority 2011, dated 2020)
